The record followed here is ChEMBL document CHEMBL3864156, “Inhibition of plasma lipid oxidation induced by peroxyl radicals, peroxynitrite, hypochlorite, 15-lipoxygenase, and singlet oxygen by clinical drugs” (Bioorg Med Chem Lett, 2016).

Data set [1] is described as follows: Plasma concentration in pediatric kawasaki patient at 10 to 25 mg/kg, po by HPLC method. Format: ADME, organism-based. Conditions: human, in vivo.
Data set [2] in a line: 1-octanol-water partition coefficient, log P of the compound. Format: physicochemical.
Data set [3] is filed under the species Mus musculus. Description: Antioxidant activity in 10% C57BL/6J mouse plasma assessed as inhibition of NaOCl-induced lipid oxidation at 30 uM by DPPP-based fluorescence assay. Format: functional, cell-free.
For data set [4], the species on record is Mus musculus. Description: Antioxidant activity in 10% C57BL/6J mouse plasma assessed as inhibition of NaOCl-induced lipid oxidation by DPPP-based fluorescence assay. The data set is classed as functional, cell-free.
Data set [5] is filed under the species Mus musculus. Description: Antioxidant activity in 10% C57BL/6J mouse plasma assessed as inhibition of SIN-1-derived peroxynitrite-induced lipid oxidation by DPPP-based fluorescence assay. Format: functional, cell-free.
The species entered for data set [6] is Mus musculus. Description: Antioxidant activity in 10% C57BL/6J mouse plasma assessed as inhibition of AAPH-derived peroxyl radicals-induced pyranine consumption at 50 uM. Format: functional, cell-free.
The nature of data set [7]: Drug level in plasma (unknown origin). The data set is classed as ADME, cell-free.
A short description of data set [8]: Plasma concentration in Sprague-Dawley rat at 1 mg/kg bolus dose with continuous infusion of 1 mg/kg per hour measured for 24 hrs. The data set is classed as ADME, organism-based. Conditions: iv.
Data set [9] in a line: Antioxidant activity assessed as inhibition of Meo-AMVN-derived peroxyl radicals-induced fucoxanthin consumption at 50 uM. The data set is classed as functional.
Data set [10] addresses T1, Polyunsaturated fatty acid lipoxygenase ALOX15 (Mus musculus, UniProt P39654).
T1 sequence (P39654 whole entry): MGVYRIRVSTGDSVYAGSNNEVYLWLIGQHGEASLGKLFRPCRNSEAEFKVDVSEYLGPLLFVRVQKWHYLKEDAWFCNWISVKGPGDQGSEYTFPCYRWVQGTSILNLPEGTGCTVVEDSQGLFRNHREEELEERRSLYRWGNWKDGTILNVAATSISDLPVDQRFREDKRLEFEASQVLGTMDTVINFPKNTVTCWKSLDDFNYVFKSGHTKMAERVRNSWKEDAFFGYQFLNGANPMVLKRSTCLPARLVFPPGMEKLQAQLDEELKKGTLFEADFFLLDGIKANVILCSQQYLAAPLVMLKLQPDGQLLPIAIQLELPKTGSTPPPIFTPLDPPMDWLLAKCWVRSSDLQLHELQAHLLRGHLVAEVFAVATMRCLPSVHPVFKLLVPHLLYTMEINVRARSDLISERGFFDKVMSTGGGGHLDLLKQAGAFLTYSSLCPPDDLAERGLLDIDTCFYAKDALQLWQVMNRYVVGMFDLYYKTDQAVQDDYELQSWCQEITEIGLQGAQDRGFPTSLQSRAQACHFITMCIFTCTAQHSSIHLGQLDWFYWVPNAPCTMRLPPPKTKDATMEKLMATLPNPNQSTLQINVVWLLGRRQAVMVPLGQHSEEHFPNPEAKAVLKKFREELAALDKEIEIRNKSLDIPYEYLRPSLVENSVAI
Description: (§1) Inhibition of 15-LOX-mediated lipid oxidation in 10% C57BL/6J mouse plasma. Format: cell-free.

The target in data set [11] is T2, Polyunsaturated fatty acid lipoxygenase ALOX15 (Mus musculus) (UniProt P39654).
T2 sequence (whole entry): T1 sequence (P39654 whole entry)
The description is as §1. The data set is classed as cell-free.

Data set [12] is described as follows: Plasma concentration in human at 400 mg, po. Format: ADME, cell-free.
The nature of data set [13]: Plasma concentration in paediatric patients with congestive heart failure. Conditions: human. Format: ADME.
Where [14] appears, read: 1-octanol/water, read-out: logP.

The source made the active and inactive calls. No cut-off for these calls is given here.

In turn, `CC(=O)CCCCn1c(=O)c2c(ncn2C)n(C)c1=O` [PENTOXIFYLLINE] had a concentration in data set [1] of 5 to 20 µM. Moreover, in data set [2] (setting [14]), the logP – broadly, a log measure of how a compound divides between an organic and an aqueous phase – turned out to be 0.19. For the same compound, in the data set listed under Mus musculus [3], the inhibition result was “Dose-dependent effect”.

Regarding `CC(C)(Sc1cc(C(C)(C)C)c(O)c(C(C)(C)C)c1)Sc1cc(C(C)(C)C)c(O)c(C(C)(C)C)c1` [PROBUCOL], the inhibition result in the data set filed under Mus musculus [4] and in the data set listed under Mus musculus [5] was “Dose-dependent effect” throughout. In addition, in the data set filed under Mus musculus [6], the inhibition entry is “Active”. Besides, the logP in [2] (setting [14]) turned out to be 1.02. The same compound displayed a concentration in data set [7] of 30 µM.

On to `O=c1c2ccccc2[se]n1-c1ccccc1` [EBSELEN], for which the logP in [2] (setting [14]) came out at 1.25. In the data set filed under Mus musculus [3], the inhibition result is “Dose-dependent effect”. Moreover, the concentration at 24 h in [8] was 5 to 20 µM.

For the compound `Cc1c(C)c2c(c(C)c1O)CC[C@@](C)(CCC[C@H](C)CCC[C@H](C)CCCC(C)C)O2`, the inhibition entry (in the data set filed under Mus musculus [6]; in data set [9]) was “Active” in each case.

Consider `Cc1c(C)c2c(c(C)c1O)CCC(C)(COc1ccc(CC3SC(=O)NC3=O)cc1)O2` (centres undefined) [TROGLITAZONE], for which the IC50 – broadly, the point on the concentration scale where inhibition reaches its midpoint – in data set [10] amounted to 20 µM. In addition, the inhibition result (in data set [11]; in the data set filed under Mus musculus [3]) was “Dose-dependent effect” in each case. In addition, the inhibition entry (in the data set listed under Mus musculus [6]; in data set [9]) was “Active” in each case. The logP in [2] (octanol/water) came out at 0.95. Moreover, in data set [12], the concentration was 5 to 20 µM.

`CC1=NN(c2ccccc2)C(=O)C1` [EDARAVONE]: the inhibition result (in the data set listed under Mus musculus [4]; in the data set listed under Mus musculus [5]; in [11]) was “Dose-dependent effect” each time. Moreover, the IC50 in [10] stood at 34 µM. Moreover, in the data set filed under Mus musculus [6], the inhibition result is “Active”. The logP in [2] (setting [14]) was determined as 0.86.

In data set [13], `COc1ccccc1OCCNCC(O)COc1cccc2[nH]c3ccccc3c12` (centres undefined) [CARVEDILOL] registered a concentration of 0.5 µM. This compound yielded a logP in data set [2] (octanol/water) of 1.04. The inhibition result in the data set filed under Mus musculus [3] was “Dose-dependent effect”.
